How the values were obtained:
[1] = tested on: brown marmorated stink bug (BMSB), Halyomorpha halys (Stål); experiment: Indoor trapping experiment with murgantiol-baited Rescue! Stink Bug Traps in homes; type: in vivo; conditions: for behavioral attraction of indoor stink bugs to baited traps: 5 mg lure on rubber septum, traps inside homes, early May, compared to blank control; for stink bugs caught relative to the blank control traps: 5 mg lure, indoor traps, blank control caught average 1 bug/trap
Procedure: A trapping experiment was carried out inside three homes with decent overwintering stink bug populations in Pittsburgh, Pa., during twelve days in early May to study potential attraction of the BMSB adults to a known Harlequin bug pheromone, murgantiol. During or before the experiment, overwintering stink bugs started waking up from their hibernation stage and walking/crawling inside homes. Three treatment lures and a blank control were tested using Sterling Rescue!® Stink Bug Traps (FIG. 1) in a block design. The three treatments included (i) 5 mg of more polar murgantiol mixture (a mixture of 8 more polar stereoisomers); (ii) 5 mg of less polar murgantiol mixture (a mixture of 8 less polar stereoisomers); and (iii) 5 mg of a racemic mixture of all 16 murgantiol stereoisomers. The test samples of (i), (ii), and (iii) were synthesized and separated based on the methods described by Zahn et al., J. Chem. Ecol. 34:238 (2008). The following scheme outlines the method starting from citronellal to prepare a racemic mixture of stereomers:
Lures were prepared by loading hexane solutions of the test compounds with 1% butylated hydroxytoluene (BHT) added as stabilizer onto grey rubber septa (5 mm sleeve-type; The West Co., Lititz, Pa.) via a rotor evaporator. The blank control dispensers were made in the same fashion as the treatment lures, but without any murgantiol mixtures—that is, rubber septum with hexane only. A set of four Sterling Rescue!® Stink Bug Traps baited with three different isomer mixture test samples of murgantiol dispensers and the blank control were set up in the same room of each selected home on the floor or hung from walls near windows (where stink bug activities were seen earlier). The starting positions of the four test traps within each set (room) were assigned randomly. The distance between traps within the same set was about 8-10 feet, depending on the size of each test room. Traps were checked every day and emptied when ≧5 bugs were captured in the best trap within the set, and their positions were re-randomized for a new replicate to minimize any positional effects.
Trap catch data were converted to proportion (P) of total captured bugs within each replicate to meet the assumptions of normality and homogeneity of variances for ANOVA (analysis of variance). Means were compared by ANOVA followed by the Duncan's multiple range test at α=0.05.

[2] = tested on: Harlequin bug, Murgantia histrionica (Hahn); conditions: both sexes; insect-produced and synthetic murgantiol; laboratory bioassays; cited from earlier work

SMILES	behavioral attraction of indoor stink bugs to baited traps [1]	attraction of sexually mature Harlequin bugs [2]	attractiveness to BMSB adults indoors ([1]; both sexes, indoors during the overwintering and transition periods)	stink bugs caught relative to the blank control traps [1]
CC(CCC1OC1(C)C)C1C=CC(C)(O)CC1 (single isomer, unassigned) [less polar murgantiol mixture]	weakly attractive			
CC(CCC1OC1(C)C)C1C=CC(C)(O)CC1 (stereo not shown) [murgantiol, 4-[3-(3,3-dimethyloxiran-2-yl)-1-methylpropyl]-1-methylcyclohex-2-en-1-ol]		attracted sexually mature Harlequin bugs of both sexes	strongly attractive	
CC(CCC1OC1(C)C)C1C=CC(C)(O)CC1 (racemic) [racemic mixture of all 16 murgantiol stereoisomers]	significant attraction			five times
CC(CCC1OC1(C)C)C1C=CC(C)(O)CC1 (single isomer, unassigned) [more polar murgantiol mixture]	strong attraction			six times

From patent US8663619B2, “Murgantiol as an indoor stink bug attractant” (Sterling International Inc., priority 2011, dated 2014)
